Results taken from US9607202B2, “Methods of generating trophectoderm and neurectoderm from human embryonic stem cells” (UNIVERSITY OF PITTSBURGH—OF THE COMMONWEALTH SYSTEM OF …, priority 2009, dated 2017).

Experiments:
Type in all cases: cell-based, human
[1] = test system: pluripotent hESC, line H7; assay: TSA or HDAC siRNA on pluripotent hESC in mTeSR: developmental and epigenetic markers (Arrayscan); conditions: TSA 0.5, 1.0 and 2.0 nM for 2 days
Procedure: In all panels of FIG. 11, pluripotent hESC, line H7, were cultured in mTeSR media were plated in 96 well plates, fixed and immunostained for developmental and epigenetic markers, and the intensity was measured using the Thermo Fisher Arrayscan. 300 cells per well, 3 wells per condition were measured and standard deviations (error bars) and T Tests were evaluated. […] Anti-HDAC3 antibodies confirms that siRNA directed against HDAC3, but not HDAC1, HDAC2, or control knocked down the concentration of HDAC3 (P<0.05, data not background subtracted). […] This protein changes colony texture by producing smooth, homogeneous colonies. […] This marker is selective for high cells with high levels of pluripotency.

hESCs [2] = assay: TSA-mediated inhibition of noggin induction of neurectoderm differentiation
Procedure: The hESCs were grown and passaged via standard collagenase methods and passaged into two ibidi plastic 8-well slides. All hESCs were plated onto feederless plates with Stempro Media for 24 hours. hESCs were 50% confluent at time of passage and split 1:5.
All plates were fed with Neural Differentiation Media (1:1 mix of D-MEM/F12 supplemented with 1×N2 and Neurobasal medium supplemented with B27 (all from Gibco/Invitrogen); supplemented with 100 ng/ml mouse recombinant noggin (R & D systems), 50 U/ml penicillin/50 μg/ml streptomycin (Invitrogen) and 2 mML-glutamine (Invitrogen)) starting at day 0 (100 ng/mL noggin in N2B/27 with media changed daily). Six wells in each of two plates was treated with TSA (0-25 nM daily beginning 24 hours s/p plating hESC
Colonies were stained with HDACI and Nestin. These proteins co-stained in a peri-nuclear filamentous pattern consistent with previous Nestin distribution. Pax6 expression was negative.

hESCs [3] = assay: HDAC inhibition with TSA on BMP4-induced hESC differentiation in MIM
Source text: Though not TE-selective, BMP4 supplementation to MIM was the most robust protocol for hESC differentiation to multiple lineages. To test whether or not TSA caused lineage specific inhibition, this protocol was used to assess HDAC inhibition on hESC differentiation to TE, ME or ExE. […] Thus HDAC inhibition delayed BMP4-induced hESC differentiation in the short-term, without altering lineage selection
96-well Microplates were scanned using the 5 or 10× objective on the ArrayScan V Automated image analysis was performed using the Compartmental Analysis BioApplication using Hoechst for identification of nuclei and various transcription factor antibodies (Table 2). Nuclear-specific fluorescence intensity was determined from approximately 300 single cells per well from 3-6 independent wells to produce a well-average nuclear intensity for each measurement Mean and standard deviation were calculated from multiple wells. Fold change of the mean intensities were normalized against matched unstimulated external controls, usually the pluripotent condition, to divide out differences due to efficiency of antibody-antigen binding and chromophore quantum yield. […] Select conditions are additionally compared in bar graph format to show standard deviations and T-tests.
Colony morphology was quantified by statistical multiresolution analysis of image texture (Mangoubi et al., 2007; Sammak et al., 2008). Image texture is a mathematical measure of the size and sharpness of objects in the image, which is illustrated in one dimension by an intensity line profile (FIG. 10). […] Therefore, we employ texture analysis as an integrated measure of colony morphology. Texture was measured using wavelet analysis (Do and Vetterli, 2002), a generalization of Fourier analysis, to decompose colony texture in phase contrast images (4× objective, Nikon TMS microscope), producing a joint probability density function for the wavelet coefficients from various scales. Different culture conditions can be distinguished as belonging to distinct classes. Each class is thus represented by a probability density function, and quantitative comparative features for classifying and statistically distinguishing colony textures are extracted from the density functions. One such feature is the Kullback-Leibler (KL) distance (Do and Vetterli, 2002). […] Specifically the KL distance between a pair of colonies from the same class is shorter than a pair from different classes.

hESC = assay: TSA toxicity in hESC
[4] = 2 nM TSA in MIM plus BMP4, 48 hours, relative to BMP4 alone

## CC(/C=C/C(=O)NO)=C\[C@@H](C)C(=O)c1ccc(N(C)C)cc1 [TSA, trichostatin A]
[1]
  DNA methylation on 5'cytosine: decreased
  GTCM2: increased
  H3K9me3: decreased
  H3K27me3: decreased
  HDAC3: significantly reduced
  Nanog: increased
  histone acetylation on H3K9: decreased acetylation
  increase of colony size: 2 fold
  peripheral F-actin: increased
[1]; dose dependent
  Oct4: increased
hESCs [2]
  molar sensitivity in hESC: 1 nM
hESCs [2]; 1.0 nM TSA
  HDAC (HDAC1 expression): reduces
  expression of nestin: reduces
  methylation of histone H3 on lysine 9: reduces
hESCs [2]; 5 nM TSA, noggin differentiation media, 48 hrs
  effect on cell-cell adhesion and cell motility: reduced cell-cell adhesion and increased cell motility
hESCs [2]; TSA treatment for 4 or more days
  longer-term formation of neurectoderm: did not inhibit longer-term formation of neurectoderm
hESCs [2]; TSA treatment for 2 days at the initiation of differentiation
  neurectoderm formation: inhibited neurectoderm formation
hESCs [3]; [4]
  CDX2 expression: decrease
  GATA6 expression: decrease
  OCT4 level: significant OCT4 level increase
  brachyury expression: decrease
hESCs [3]; TSA added to MIM with BMP4
  expression of HDAC3: significantly reduced
  methylation of histone H3K9: significantly reduced
hESCs [3]; TSA in MIM plus BMP4, 48 hours
  BMP4-induced epithelial transformation (colony morphology by texture analysis): significantly delayed
hESC
  highest concentration without toxic effects: 1 nM
